Assay: xn = mol fraction of the nth substance listed
Settings: 101 kPa, Liquid, Vibrating tube method

CCCCN(C=O)CCCC [N,N-dibutylformamide] + CCCC[N+]1(C)CCCC1.FC(F)(F)C(F)(F)[P-](F)(F)(F)(C(F)(F)C(F)(F)F)C(F)(F)C(F)(F)F
mass density [kg/m3]
Settings	293.15 K	298.15 K	303.15 K	308.15 K	313.15 K	318.15 K	323.15 K
x2 = 0.0351	928.01	923.97	919.87	915.81	911.67	907.43	903.16
x2 = 0.0697	972.58	968.41	964.18	960.06	955.82	951.45	947.14
x2 = 0.0998	1008.79	1004.57	1000.33	996.06	991.74	987.31	982.93
x2 = 0.1498	1064.17	1059.81	1055.39	1051.03	1046.54	1042.09	1037.62
x2 = 0.1994	1114.29	1109.89	1105.41	1100.9	1096.39	1091.73	1087.01
x2 = 0.2999	1204.19	1199.58	1194.89	1190.17	1185.45	1180.61	1175.67
x2 = 0.4003	1281.29	1276.52	1271.65	1266.78	1261.89	1256.88	1251.71
x2 = 0.499	1347.44	1342.55	1337.52	1332.49	1327.52	1322.34	1317.03
x2 = 0.5993	1406.59	1401.54	1396.37	1391.2	1386.12	1380.87	1375.47
x2 = 0.6799	1449.07	1443.87	1438.69	1433.45	1428.23	1422.89	1417.48
x2 = 0.7754	1494.51	1489.34	1483.96	1478.61	1473.39	1467.94	1462.42
x2 = 0.8021	1506.51	1501.2	1495.89	1490.51	1485.21	1479.75	1474.28
x2 = 0.9011	1548.52	1543.24	1537.81	1532.31	1526.89	1521.4	1515.91
x2 = 0.949	1568.08	1562.74	1557.33	1551.79	1546.31	1540.77	1535.23
